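96-well plates; 48 h exposure; 5 concentrations. Endpoints by linear interpolation between flanking doses. Not reached: highest tested concentration assigned. TGI is the concentration that stops growth completely.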
Experiments:
Assay in all cases: NCI tumour cell line growth inhibition, 48 h
786-0 renal = test system: 786-0 renal
A498 renal = test system: A498 renal
A549 NSCLC = test system: A549 NSCLC
ACHN renal = test system: ACHN renal
CAKI-1 renal = test system: CAKI-1 renal
CCRF-CEM leukemia = test system: CCRF-CEM leukemia
COLO 205 colon = test system: COLO 205 colon
DU-145 prostate = test system: DU-145 prostate
EKVX NSCLC = test system: EKVX NSCLC
HCC-2998 colon = test system: HCC-2998 colon
HCT-116 colon = test system: HCT-116 colon
HCT-15 colon = test system: HCT-15 colon
HOP-62 NSCLC = test system: HOP-62 NSCLC
HOP-92 NSCLC = test system: HOP-92 NSCLC
HS 578T breast = test system: HS 578T breast
HT29 colon = test system: HT29 colon
IGROV1 ovarian = test system: IGROV1 ovarian
K-562 leukemia = test system: K-562 leukemia
KM12 colon = test system: KM12 colon
LOX IMVI melanoma = test system: LOX IMVI melanoma
M14 melanoma = test system: M14 melanoma
MALME-3M melanoma = test system: MALME-3M melanoma
MCF7 breast = test system: MCF7 breast
MDA-MB-231 breast = test system: MDA-MB-231 breast
MDA-MB-435 = test system: MDA-MB-435
MDA-N = test system: MDA-N
MOLT-4 leukemia = test system: MOLT-4 leukemia
NCI-H226 lung = test system: NCI-H226 lung
NCI-H23 lung = test system: NCI-H23 lung
NCI-H522 lung = test system: NCI-H522 lung
NCI/ADR-RES ovarian = test system: NCI/ADR-RES ovarian
OVCAR-5 ovarian = test system: OVCAR-5 ovarian
OVCAR-8 ovarian = test system: OVCAR-8 ovarian
PC-3 prostate = test system: PC-3 prostate
RPMI-8226 leukemia = test system: RPMI-8226 leukemia
RXF 393 renal = test system: RXF 393 renal
SF-268 CNS = test system: SF-268 CNS
SF-295 CNS = test system: SF-295 CNS
SF-539 CNS = test system: SF-539 CNS
SK-MEL-2 melanoma = test system: SK-MEL-2 melanoma
SK-MEL-28 melanoma = test system: SK-MEL-28 melanoma
SK-MEL-5 melanoma = test system: SK-MEL-5 melanoma
SK-OV-3 ovarian = test system: SK-OV-3 ovarian
SN12C renal = test system: SN12C renal
SNB-19 CNS = test system: SNB-19 CNS
SNB-75 CNS = test system: SNB-75 CNS
SR leukemia = test system: SR leukemia
SW-620 colon = test system: SW-620 colon
T-47D breast = test system: T-47D breast
TK-10 renal = test system: TK-10 renal
U251 CNS = test system: U251 CNS
UACC-257 melanoma = test system: UACC-257 melanoma
UACC-62 melanoma = test system: UACC-62 melanoma
UO-31 renal = test system: UO-31 renal
NCI-H460 lung = test system: NCI-H460 lung
OVCAR-3 ovarian = test system: OVCAR-3 ovarian
OVCAR-4 ovarian = test system: OVCAR-4 ovarian

Measured: TGI

CC1CC(NN(C)C)C2(C(N)=O)C(N)=NC(=O)C12C#N (centres undefined)
not listed: NCI-H460 lung | OVCAR-3 ovarian | OVCAR-4 ovarian
> 100 µM: all other assays above

O=C(NC/C(Cl)=C/Cl)Nc1cccc2c1CCCC2
not listed: CCRF-CEM leukemia | K-562 leukemia
> 100 µM: all other assays above
